Results as given in patent US10457677B2 (priority 2015, dated 2019).
Like-named read-outs stand apart in the source and are kept apart here.

Key:
[1] = target: purified human recombinant ATM (ataxia telangiectasia mutated), full length (Homo sapiens (Human), UniProt Q13315); assay: ATM kinase assay - determination of ATM inhibition (IC50 ATM), TR-FRET; type: biochemical
Outline: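 Full-length enzyme, expressed in a mammalian cell line, pre-incubated 15 min with inhibitor in 25 mM HEPES pH 8.0, 10 mM Mg(CH3COO)2, 1 mM MnCl2, 0,1% BSA, 0,01% Brij 35, 5 mM DTT. Full-length cmyc-p53 (Sf21-expressed) and ATP then added, 30-35 min at 22° C. EDTA stop; p53 S15 phosphorylation read by TR-FRET antibodies.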

[2] = system: phosphorylation of CHK2 (phospho-Thr68) in HCT116 cells; assay: Cellular pCHK2 assay: bleomycin-induced phosphorylation of CHK2 (phospho-Thr68), immunofluorescence high-content analysis; type: cell-based, human; settings: Homo sapiens, HCT-116, 4 h, read-out: IC50 (pCHK2)
Outline: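 HCT116 cells in DMEM with 10% FCS, incubated overnight at 37° C, then given compounds (1 nM to 30 μM, 0.5% DMSO) together with 10 μM bleomycin. Phospho-Thr68 CHK2 immunostained and imaged by high-content imager; nuclei with pCHK2 above background counted, cell count from propidium iodide DNA stain.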

mTOR (human) = mTOR (human) (Homo sapiens (Human), UniProt P42345); assay: mTOR (human) kinase assay, [γ-33P-ATP] filter assay; type: biochemical
Description: Furthermore, the effect, in particular inhibition, of other kinases and thus the selectivity of the compounds according to the invention can be determined with the aid of the following assay:
mTOR (human) was incubated with 50 mM HEPES pH 7.5, 1 mM EGTA, 0.01% Tween 20, 2 mg/ml of the substrate, 3 mM MnCl2 and [γ-^33P-ATP] (specific activity approximately 500 cpm/pmol, concentration as necessary). The reaction was initiated by addition of MgATP solution. After incubation at room temperature for 40 minutes, the reaction was stopped by addition of 3% phosphoric acid. 10 μl of the reaction solution were then transferred dropwise onto a P30 filtermat and washed three times for 5 min in 75 mM phosphoric acid and once in methanol, dried and evaluated by means of liquid scintillation counting.

PI3K p110α/p85α (human) = PI3K p110α/p85α (human) (Homo sapiens (Human), UniProt P42336); assay: PI3K p110α/p85α (human), non-radioactive assay (HTRF); type: biochemical; settings: read-out: IC50 (PI3Kalpha)
PI3K p110β/p85α (human) = PI3K p110β/p85α (human) (Homo sapiens (Human), UniProt P42338); assay: PI3K p110β/p85α (human), non-radioactive assay (HTRF); type: biochemical; settings: read-out: IC50 (PI3Kbeta)
Description: PI3K p110β/p85α (Human), Non-radioactive Assay
PI3K p110β/p85α (human) was incubated in an assay buffer comprising 10 μM phosphati-dylinositol 4,5-bisphosphate and MgATP (concentration as necessary). The reaction was initiated by addition of MgATP solution. After an incubation time of 30 min at room temperature, the reaction was stopped by addition of a solution consisting of EDTA and biotinylated phosphatidylinositol 3,4,5-trisphosphate. Finally, the detection buffer, consisting of a europium-labelled anti-GST monoclonal antibody, a GST-labelled GRP1 PH domain and streptavidin allophycocyanin, was added. The plate was read out via homogeneous time-resolved fluorescence (HTRF) and the corresponding signals were evaluated via the formula HTRF=10000×(Em665nm/Em620nm).

PI3K p110δ/p85α (human) = PI3K p110δ/p85α (human) (Homo sapiens (Human), UniProt O00329); assay: PI3K p110δ/p85α (human), non-radioactive assay (HTRF); type: biochemical; settings: read-out: IC50 (PI3Kdelta)
PI3K (p120γ) (human) = PI3K (p120γ) (human) (Homo sapiens (Human), UniProt P48736); assay: PI3K (p120γ) (human), non-radioactive assay (HTRF); type: biochemical; settings: read-out: IC50 (PI3Kgamma)
Outline: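 Enzyme was run with 10 μM phosphatidylinositol 4,5-bisphosphate, starting the reaction with MgATP at an unspecified level, for 30 min at room temperature. The stop used EDTA plus biotinylated PIP3, and detection used Eu-anti-GST, GST-GRP1 PH domain and streptavidin-APC. Signal was taken as HTRF = 10000×(Em665nm/Em620nm).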

PI3K p110α/p85α (human), sequence (P42336 whole entry): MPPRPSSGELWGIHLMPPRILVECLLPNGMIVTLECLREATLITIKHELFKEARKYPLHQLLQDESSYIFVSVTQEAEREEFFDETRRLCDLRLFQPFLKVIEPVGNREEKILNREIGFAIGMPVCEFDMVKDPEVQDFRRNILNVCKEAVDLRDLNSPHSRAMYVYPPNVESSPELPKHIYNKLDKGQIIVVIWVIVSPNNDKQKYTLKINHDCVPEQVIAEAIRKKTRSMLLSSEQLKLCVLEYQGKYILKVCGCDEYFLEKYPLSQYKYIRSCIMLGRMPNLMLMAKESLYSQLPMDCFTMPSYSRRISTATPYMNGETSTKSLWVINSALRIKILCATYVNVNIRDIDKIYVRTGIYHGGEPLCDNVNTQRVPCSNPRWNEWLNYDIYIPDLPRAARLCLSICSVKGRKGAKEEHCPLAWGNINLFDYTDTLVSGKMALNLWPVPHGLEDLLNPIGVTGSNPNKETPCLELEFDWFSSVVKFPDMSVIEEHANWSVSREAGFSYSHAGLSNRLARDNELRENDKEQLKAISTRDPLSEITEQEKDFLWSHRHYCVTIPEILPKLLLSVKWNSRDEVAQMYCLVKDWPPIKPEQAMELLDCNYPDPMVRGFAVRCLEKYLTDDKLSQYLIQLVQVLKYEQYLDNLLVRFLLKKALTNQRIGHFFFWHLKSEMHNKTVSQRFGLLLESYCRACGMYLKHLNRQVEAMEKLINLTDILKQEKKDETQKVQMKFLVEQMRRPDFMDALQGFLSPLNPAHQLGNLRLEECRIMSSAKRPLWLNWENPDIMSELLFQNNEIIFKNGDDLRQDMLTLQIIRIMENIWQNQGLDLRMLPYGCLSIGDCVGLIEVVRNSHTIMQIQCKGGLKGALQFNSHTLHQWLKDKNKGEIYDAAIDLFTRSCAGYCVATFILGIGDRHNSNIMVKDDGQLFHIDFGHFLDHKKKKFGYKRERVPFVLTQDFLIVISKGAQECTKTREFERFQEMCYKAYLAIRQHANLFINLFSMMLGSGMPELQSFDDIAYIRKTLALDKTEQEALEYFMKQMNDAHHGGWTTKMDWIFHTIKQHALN
PI3K p110α/p85α (human), sequence (P27986 whole entry partner): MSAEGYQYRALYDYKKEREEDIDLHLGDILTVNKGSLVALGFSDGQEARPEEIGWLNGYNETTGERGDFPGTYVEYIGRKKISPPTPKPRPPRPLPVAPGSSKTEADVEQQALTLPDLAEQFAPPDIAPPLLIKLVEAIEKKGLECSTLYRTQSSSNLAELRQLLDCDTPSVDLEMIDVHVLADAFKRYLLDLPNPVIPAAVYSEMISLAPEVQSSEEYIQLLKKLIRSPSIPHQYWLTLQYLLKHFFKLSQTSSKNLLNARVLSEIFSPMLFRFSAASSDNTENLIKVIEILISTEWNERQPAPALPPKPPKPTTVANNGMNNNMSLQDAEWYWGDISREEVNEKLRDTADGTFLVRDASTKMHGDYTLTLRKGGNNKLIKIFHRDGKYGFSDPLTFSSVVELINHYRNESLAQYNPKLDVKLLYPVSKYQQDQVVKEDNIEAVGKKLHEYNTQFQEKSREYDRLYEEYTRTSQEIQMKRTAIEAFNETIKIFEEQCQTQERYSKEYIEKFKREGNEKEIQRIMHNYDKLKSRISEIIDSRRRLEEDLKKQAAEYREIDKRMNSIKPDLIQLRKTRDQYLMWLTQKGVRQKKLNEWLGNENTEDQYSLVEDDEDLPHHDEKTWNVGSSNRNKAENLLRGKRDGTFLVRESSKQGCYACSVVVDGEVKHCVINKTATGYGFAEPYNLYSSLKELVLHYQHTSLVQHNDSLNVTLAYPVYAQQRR
PI3K p110δ/p85α (human), sequence (O00329 whole entry): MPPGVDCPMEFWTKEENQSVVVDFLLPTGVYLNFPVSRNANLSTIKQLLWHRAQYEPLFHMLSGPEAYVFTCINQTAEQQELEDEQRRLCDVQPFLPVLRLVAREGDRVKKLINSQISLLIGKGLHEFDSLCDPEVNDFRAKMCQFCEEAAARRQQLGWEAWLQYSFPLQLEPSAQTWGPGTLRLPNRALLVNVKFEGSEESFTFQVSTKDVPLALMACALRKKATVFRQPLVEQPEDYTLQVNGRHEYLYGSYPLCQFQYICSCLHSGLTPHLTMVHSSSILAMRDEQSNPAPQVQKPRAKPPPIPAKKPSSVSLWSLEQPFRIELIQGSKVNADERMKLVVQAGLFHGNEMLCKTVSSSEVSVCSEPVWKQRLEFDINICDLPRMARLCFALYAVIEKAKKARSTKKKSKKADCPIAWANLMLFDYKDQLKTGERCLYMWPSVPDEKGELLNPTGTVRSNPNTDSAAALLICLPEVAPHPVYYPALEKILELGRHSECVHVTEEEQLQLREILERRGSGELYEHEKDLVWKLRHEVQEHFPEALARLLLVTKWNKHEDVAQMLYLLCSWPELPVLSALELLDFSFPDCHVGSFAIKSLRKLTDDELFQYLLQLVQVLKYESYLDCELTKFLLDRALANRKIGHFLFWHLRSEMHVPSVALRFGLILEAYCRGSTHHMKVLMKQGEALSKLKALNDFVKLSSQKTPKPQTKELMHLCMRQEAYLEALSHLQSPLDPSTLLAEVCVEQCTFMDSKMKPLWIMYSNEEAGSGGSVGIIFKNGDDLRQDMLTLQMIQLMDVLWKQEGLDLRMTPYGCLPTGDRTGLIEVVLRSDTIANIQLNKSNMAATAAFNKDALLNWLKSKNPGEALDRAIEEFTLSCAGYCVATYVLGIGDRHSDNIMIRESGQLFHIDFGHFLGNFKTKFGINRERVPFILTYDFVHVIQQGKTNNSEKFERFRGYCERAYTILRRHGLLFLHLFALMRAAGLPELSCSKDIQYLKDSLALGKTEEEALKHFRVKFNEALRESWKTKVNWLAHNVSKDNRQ
PI3K p110δ/p85α (human), sequence (P27986 whole entry partner): as the sequence (P27986 whole entry partner) above
PI3K p110β/p85α (human), sequence (P42338 whole entry): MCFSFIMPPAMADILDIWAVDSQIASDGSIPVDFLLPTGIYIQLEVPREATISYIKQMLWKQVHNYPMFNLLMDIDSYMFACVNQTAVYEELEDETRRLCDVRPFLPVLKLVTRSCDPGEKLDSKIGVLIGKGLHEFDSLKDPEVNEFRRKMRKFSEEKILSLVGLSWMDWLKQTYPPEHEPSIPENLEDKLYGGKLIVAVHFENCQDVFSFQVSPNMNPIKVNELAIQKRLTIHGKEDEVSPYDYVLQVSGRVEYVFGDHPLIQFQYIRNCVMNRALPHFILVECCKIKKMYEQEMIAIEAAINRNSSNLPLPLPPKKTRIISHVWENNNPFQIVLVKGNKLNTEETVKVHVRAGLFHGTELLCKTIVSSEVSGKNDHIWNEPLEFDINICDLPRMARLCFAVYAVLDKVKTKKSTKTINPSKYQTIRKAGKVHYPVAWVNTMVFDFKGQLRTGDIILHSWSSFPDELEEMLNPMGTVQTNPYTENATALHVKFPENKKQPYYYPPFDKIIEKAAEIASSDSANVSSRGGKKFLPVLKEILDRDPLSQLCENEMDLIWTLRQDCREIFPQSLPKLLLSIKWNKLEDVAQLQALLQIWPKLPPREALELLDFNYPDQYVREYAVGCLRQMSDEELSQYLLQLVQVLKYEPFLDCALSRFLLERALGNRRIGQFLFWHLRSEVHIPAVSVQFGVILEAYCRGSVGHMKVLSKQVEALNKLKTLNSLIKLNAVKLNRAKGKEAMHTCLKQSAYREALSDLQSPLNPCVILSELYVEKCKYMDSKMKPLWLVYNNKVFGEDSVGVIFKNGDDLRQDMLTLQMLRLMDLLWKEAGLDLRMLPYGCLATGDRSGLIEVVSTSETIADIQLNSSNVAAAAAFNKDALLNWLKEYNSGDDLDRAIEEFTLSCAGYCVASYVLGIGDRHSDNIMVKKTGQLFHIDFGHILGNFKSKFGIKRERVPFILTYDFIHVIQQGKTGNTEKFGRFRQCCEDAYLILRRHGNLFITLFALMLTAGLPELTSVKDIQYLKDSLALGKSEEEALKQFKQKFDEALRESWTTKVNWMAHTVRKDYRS
PI3K p110β/p85α (human), sequence (P27986 whole entry partner): as the sequence (P27986 whole entry partner) above
PI3K (p120γ) (human), sequence (P48736 whole entry, the tested form may be a part): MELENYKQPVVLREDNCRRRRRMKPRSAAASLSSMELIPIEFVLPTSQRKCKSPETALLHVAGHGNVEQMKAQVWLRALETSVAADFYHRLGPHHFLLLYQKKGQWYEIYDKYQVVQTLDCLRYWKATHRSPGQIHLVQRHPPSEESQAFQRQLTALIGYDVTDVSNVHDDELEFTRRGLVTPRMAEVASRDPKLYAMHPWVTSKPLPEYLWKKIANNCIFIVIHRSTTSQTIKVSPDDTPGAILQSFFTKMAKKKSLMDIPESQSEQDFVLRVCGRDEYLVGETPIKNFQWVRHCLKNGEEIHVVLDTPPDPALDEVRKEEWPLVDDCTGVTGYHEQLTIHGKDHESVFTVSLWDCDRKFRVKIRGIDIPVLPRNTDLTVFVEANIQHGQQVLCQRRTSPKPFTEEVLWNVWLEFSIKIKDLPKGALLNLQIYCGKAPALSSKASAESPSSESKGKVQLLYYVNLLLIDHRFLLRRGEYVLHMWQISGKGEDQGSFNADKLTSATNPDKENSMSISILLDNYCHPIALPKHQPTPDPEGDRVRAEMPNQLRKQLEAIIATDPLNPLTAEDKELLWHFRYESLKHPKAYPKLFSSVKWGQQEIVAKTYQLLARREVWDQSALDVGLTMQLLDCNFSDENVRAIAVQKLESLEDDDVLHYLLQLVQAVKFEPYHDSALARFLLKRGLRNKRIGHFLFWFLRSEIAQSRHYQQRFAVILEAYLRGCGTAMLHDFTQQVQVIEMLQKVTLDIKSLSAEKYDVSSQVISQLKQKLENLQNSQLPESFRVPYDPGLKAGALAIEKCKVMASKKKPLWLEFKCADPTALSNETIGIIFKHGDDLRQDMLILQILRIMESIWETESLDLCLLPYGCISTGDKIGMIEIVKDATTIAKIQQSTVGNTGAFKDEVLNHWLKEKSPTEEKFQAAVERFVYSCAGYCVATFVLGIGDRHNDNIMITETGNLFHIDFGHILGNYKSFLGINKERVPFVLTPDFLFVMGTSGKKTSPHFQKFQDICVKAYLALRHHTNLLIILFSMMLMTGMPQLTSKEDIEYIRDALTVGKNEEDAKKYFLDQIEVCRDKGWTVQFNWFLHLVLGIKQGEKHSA

Structure (SMILES) | IC50 [1] | IC50 ([1]; 10 μM ATP, substrate p53) | IC50 [2] | IC50 (mTOR (human)) | IC50 (PI3K p110α/p85α (human)) | IC50 (PI3K p110β/p85α (human)) | IC50 (PI3K p110δ/p85α (human)) | IC50 (PI3K (p120γ) (human))
COc1cc2ncc3c(c2cc1-c1cn[nH]c1)n(-c1c(C)cncc1F)c(=O)n3C [Compound Example 8, 1-(3-Fluoro-5-methylpyridin-4-yl)-7-methoxy-3-methyl-8-(1H-pyrazol-4-yl)-1,3-dihydroimidazo[4,5-c] quinolin-2-one] | < 0.001 µM | < 0.001 µM | < 0.2 µM | > 5 µM | > 30 µM | > 30 µM | > 30 µM | > 30 µM
COc1cc2ncc3c(c2cc1-c1cn[nH]c1)n(-c1ccncc1F)c(=O)n3C [Compound Example 9, 1-(3-Fluoropyridin-4-yl)-7-methoxy-3-methyl-8-(1H-pyrazol-4-yl)-1,3-dihydro-imidazo[4,5-c]quinolin-2-one] | < 0.001 µM | < 0.001 µM | < 0.2 µM | > 10 µM | > 30 µM | > 30 µM | > 30 µM | > 30 µM
COc1cc2ncc3c(c2cc1-c1cn(C)nc1C)n(-c1cn(C)nc1C)c(=O)n3C [Compound Example 10, 1,8-Bis-(1,3-dimethyl-1H-pyrazol-4-yl)-7-methoxy-3-methyl-1,3-dihydroimidazo-[4,5-c]quinolin-2-one] | < 0.001 µM | < 0.001 µM | < 0.2 µM | > 30 µM | > 30 µM | > 30 µM | > 30 µM | > 30 µM
COc1cc2ncc3c(c2cc1-c1cn(C)nc1C)n(-c1ncc(F)cc1F)c(=O)n3C [Compound Example 11, 1-(3,5-Difluoropyridin-2-yl)-8-(1,3-dimethyl-1H-pyrazol-4-yl)-7-methoxy-3-methyl-1,3-dihydroimidazo[4,5-c]-quinolin-2-one] | < 0.001 µM | < 0.001 µM | < 0.2 µM | > 30 µM | > 30 µM | > 30 µM | > 30 µM | > 30 µM
CCc1cncc(F)c1-n1c(=O)n(C)c2cnc3cc(OC)c(-c4cnn(C)c4)cc3c21 [Compound Example 12, 1-(3-Ethyl-5-fluoropyridin-4-yl)-7-methoxy-3-methyl-8-(1-methyl-1H-pyrazol-4-yl)-1,3-dihydroimidazo[4,5-c]-quinolin-2-one] | < 0.001 µM | < 0.001 µM | < 0.2 µM | > 30 µM | > 30 µM | > 30 µM | > 30 µM | > 30 µM
COc1cc2ncc3c(c2cc1-c1cnn(C)c1)n(-c1ncccc1F)c(=O)n3C [Compound Example 14, 1-(3-Fluoropyridin-2-yl)-7-methoxy-3-methyl-8-(1-methyl-1H-pyrazol-4-yl)-1,3-dihydroimidazo[4,5-c]-quinolin-2-one] | < 0.001 µM | < 0.001 µM | < 0.2 µM | > 30 µM | > 30 µM | > 30 µM | > 30 µM | > 30 µM
COc1cc2ncc3c(c2cc1-c1cnn(C)c1)n(-c1c(F)cncc1OC)c(=O)n3C [Compound Example 15, 1-(3-Fluoro-5-methoxypyridin-4-yl)-7-methoxy-3-methyl-8-(1-methyl-1H-pyrazol-4-yl)-1,3-dihydroimidazo[4,5-c]-quinolin-2-one] | < 0.001 µM | < 0.001 µM | < 0.2 µM | > 30 µM | > 30 µM | > 30 µM | > 30 µM | > 30 µM
COc1cc2ncc3c(c2cc1-c1cn(C)nc1C)n(-c1ncccc1F)c(=O)n3C [Compound Example 16, 8-(1,3-Dimethyl-1H-pyrazol-4-yl)-1-(3-fluoropyridin-2-yl)-7-methoxy-3-methyl-1,3-dihydroimidazo[4,5-c] quinolin-2-one] | < 0.001 µM | < 0.001 µM | < 0.2 µM | > 30 µM | > 30 µM | > 30 µM | > 30 µM | > 30 µM
COc1cc2ncc3c(c2cc1-c1cn[nH]c1)n(-c1cnn(C)c1)c(=O)n3C [Compound Example 17, 7-Methoxy-3-methyl-1-(1-methyl-1H-pyrazol-4-yl)-8-(1H-pyrazol-4-yl)-1,3-dihydroimidazo[4,5-c] quinolin-2-one] | < 0.01 µM | < 0.001 µM | < 0.2 µM | > 10 µM | > 30 µM | > 30 µM | > 30 µM | > 30 µM
COc1cc2ncc3c(c2cc1-c1cnn(C)c1)n(-c1c(C)cncc1F)c(=O)n3C [Compound Example 18, 1-(3-Fluoro-5-methylpyridin-4-yl)-7-methoxy-3-methyl-8-(1-methyl-1H-pyrazol-4-yl)-1,3-dihydroimidazo[4,5-c] quinolin-2-one] | < 0.001 µM | < 0.01 µM | < 0.2 µM | > 5 µM | > 10 µM | > 30 µM | > 30 µM | > 5 µM
COc1cc2ncc3c(c2cc1-c1cn[nH]c1)n(-c1ncc(C)cc1F)c(=O)n3C [Compound Example 20, 1-(3-Fluoro-5-methylpyridin-2-yl)-7-methoxy-3-methyl-8-(1H-pyrazol-4-yl)-1,3-dihydroimidazo[4,5-c] quinolin-2-one] | < 0.001 µM | < 0.001 µM | < 0.2 µM | > 30 µM | > 30 µM | > 30 µM | > 30 µM | > 30 µM
CCn1cc(-c2cc3c(cc2OC)ncc2c3n(-c3cn(C)nc3C)c(=O)n2C)cn1 [Compound Example 21, 1-(1,3-Dimethyl-1H-pyrazol-4-yl)-8-(1-ethyl-1H-pyrazol-4-yl)-7-methoxy-3-methyl-1,3-dihydroimidazo[4,5-c] quinolin-2-one] | < 0.001 µM | < 0.001 µM | < 0.2 µM | > 5 µM | > 20 µM | > 30 µM | > 30 µM | > 300 µM
COc1cc2ncc3c(c2cc1-c1cnn(C)c1)n(-c1cnn(C)c1)c(=O)n3C [Compound Example 23, 7-Methoxy-3-methyl-1,8-bis-(1-methyl-1H-pyrazol-4-yl)-1,3-dihydroimidazo[4,5-c] quinolin-2-one] | < 0.01 µM | < 0.01 µM | < 0.2 µM | > 20 µM | > 20 µM | > 30 µM | > 30 µM | > 30 µM
CCn1cc(-c2cc3c(cc2OC)ncc2c3n(-c3ncccc3F)c(=O)n2C)cn1 [Compound Example 24, 8-(1-Ethyl-1H-pyrazol-4-yl)-1-(3-fluoropyridin-2-yl)-7-methoxy-3-methyl-1,3-dihydroimidazo[4,5-c] quinolin-2-one] | < 0.001 µM | < 0.001 µM | < 0.2 µM | > 30 µM | > 30 µM | > 30 µM | > 30 µM | > 30 µM
CCc1cncc(F)c1-n1c(=O)n(C)c2cnc3cc(OC)c(-c4cnn(CC)c4)cc3c21 [Compound Example 25, 1-(3-Ethyl-5-fluoropyridin-4-yl)-8-(1-ethyl-1H-pyrazol-4-yl)-7-methoxy-3-methyl-1,3-dihydroimidazo[4,5-c] quinolin-2-one] | < 0.001 µM | < 0.001 µM | < 0.2 µM | > 30 µM | > 30 µM | > 30 µM | > 30 µM | > 30 µM
